According to US9216991B2 (Ares Trading S.A., priority 2012, dated 2015):
pIC50: −log10 of the molar value. Counter-ions that a name gives are not always drawn.

Biological target: T1, IRAK4 (Homo sapiens, UniProt Q9NWZ3)
T1 construct: His (N); TEV cleavage site (N)
T1 sequence (Q9NWZ3 1-460): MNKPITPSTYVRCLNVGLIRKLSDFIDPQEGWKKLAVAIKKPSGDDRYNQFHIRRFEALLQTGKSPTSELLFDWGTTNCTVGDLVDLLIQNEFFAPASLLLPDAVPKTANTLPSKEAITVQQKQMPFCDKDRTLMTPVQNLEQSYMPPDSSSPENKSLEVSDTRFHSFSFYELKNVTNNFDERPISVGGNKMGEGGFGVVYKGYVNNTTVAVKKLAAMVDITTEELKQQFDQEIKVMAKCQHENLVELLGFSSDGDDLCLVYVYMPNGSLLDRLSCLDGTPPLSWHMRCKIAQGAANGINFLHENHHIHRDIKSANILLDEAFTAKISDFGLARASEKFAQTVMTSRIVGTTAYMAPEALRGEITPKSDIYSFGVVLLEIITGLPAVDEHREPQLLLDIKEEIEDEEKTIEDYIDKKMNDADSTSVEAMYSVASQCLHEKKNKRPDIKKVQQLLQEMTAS
Assay: IRAK4 Enzymatic Assay
Assay type: biochemical
Conditions: His-TEV-IRAK4 20 ng/well, ATP 2 μM, STK1-biotin peptide 300 nM, 3 hours at 30° C., FlashPlate radioactivity
In short: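 Recombinant His-TEV-tagged IRAK4 (20 ng/well) phosphorylates biotinylated STK1 peptide (300 nM) with 2 μM ATP plus [^33P]ATP, 3 h at 30 °C in pH 7.0 HEPES buffer with MgCl2 and MnCl2; compounds tested 20 μM to 1 nM. Reaction stopped with EDTA; incorporated radioactivity counted on streptavidin FlashPlates.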

pIC50 | SMILES
> 7.00 | Cn1cc(-c2cccc(-c3ncc(-c4cnn(CCc5ccncc5)c4)cn3)c2)cn1 [Example 53, 2-[3-(1-Methyl-1H-pyrazol-4-yl)-phenyl]-5-[1-(2-pyridin-4-yl-ethyl)-1H-pyrazol-4-yl]-pyrimidine]
6.00 to 7.00 | Cn1cc(-c2cccc(-c3ncc(-c4cnn(CC(=O)NC5CCOCC5)c4)cn3)c2)cn1 [Example 54, 2-(4-{2-[3-(1-Methyl-1H-pyrazol-4-yl)-phenyl]-pyrimidin-5-yl}-pyrazol-1-yl)-N-(tetrahydro-pyran-4-yl)-acetamide]
6.00 to 7.00 | Cn1cc(-c2cccc(-c3ncc(-c4cnn(CC(=O)N5CC6(COC6)C5)c4)cn3)c2)cn1 [Example 55, 2-(4-{2-[3-(1-Methyl-1H-pyrazol-4-yl)-phenyl]-pyrimidin-5-yl}-pyrazol-1-yl)-1-(2-oxa-6-aza-spiro[3.3]hept-6-yl)-ethanone]
6.00 to 7.00 | Cc1ncc(-c2cccc(-c3ncc(-c4cnn(CC(=O)N5CCCC5)c4)cn3)c2)s1 [Example 56, 2-(4-{2-[3-(2-Methyl-thiazol-5-yl)-phenyl]-pyrimidin-5-yl}-pyrazol-1-yl)-1-pyrrolidin-1-yl-ethanone]
6.00 to 7.00 | Cn1cc(-c2cccc(-c3ncc(-c4cnn(CCN5CCCCC5)c4)cn3)c2)cn1 [Example 57, 2-[3-(1-Methyl-1H-pyrazol-4-yl)-phenyl]-5-[1-(2-piperidin-1-yl-ethyl)-1H-pyrazol-4-yl]-pyrimidine]
6.00 to 7.00 | Cn1cc(-c2cccc(-c3ncc(-c4cnn(CCN5CCCC5)c4)cn3)c2)cn1 [Example 58, 2-[3-(1-Methyl-1H-pyrazol-4-yl)-phenyl]-5-[1-(2-pyrrolidin-1-yl-ethyl)-1H-pyrazol-4-yl]-pyrimidine]
5.30 to 6.00 | O=C(Cn1cc(-c2cnc(-c3cccc(-c4cnn(CCO)c4)c3)nc2)cn1)N1CCCC1 [Example 59, 2-[4-(2-{3-[1-(2-Hydroxy-ethyl)-1H-pyrazol-4-yl]-phenyl}-pyrimidin-5-yl)-pyrazol-1-yl]-1-pyrrolidin-1-yl-ethanone]
5.30 to 6.00 | CCC(CO)NC(=O)Cn1cc(-c2cnc(-c3cccc(-c4cnn(C)c4)c3)nc2)cn1 (centres unmarked) [Example 60, N-(1-Hydroxymethyl-propyl)-2-(4-{2-[3-(1-methyl-1H-pyrazol-4-yl)-phenyl]-pyrimidin-5-yl}-pyrazol-1-yl)-acetamide]
> 7.00 | CN1[C@@H]2CC[C@H]1C[C@H](n1cc(-c3cnc(-c4cccc(-c5cnn(C)c5)c4)nc3)cn1)C2 [Example 61, (3-exo)-8-Methyl-3-(4-{2-[3-(1-methyl-1H-pyrazol-4-yl)-phenyl]-pyrimidin-5-yl}-pyrazol-1-yl)-8-aza-bicyclo[3.2.1]octane]
6.00 to 7.00 | Cn1cc(-c2cccc(-c3ncc(-c4cnn(C5CCC(C(=O)O)CC5)c4)cn3)c2)cn1 (centres unmarked) [Example 62, 4-(4-{2-[3-(1-Methyl-1H-pyrazol-4-yl)-phenyl]-pyrimidin-5-yl}-pyrazol-1-yl)-cyclohexanecarboxylic acid]
6.00 to 7.00 | COCC(C)NC(=O)Cn1cc(-c2cnc(-c3cccc(-c4cnn(C)c4)c3)nc2)cn1 (centres unmarked) [Example 63]
6.00 to 7.00 | CN1CCCC1CCn1cc(-c2cnc(-c3cccc(-c4cnn(C)c4)c3)nc2)cn1 (centres unmarked) [Example 64, 2-[3-(1-Methyl-1H-pyrazol-4-yl)-phenyl]-5-{1-[2-(1-methyl-pyrrolidin-2-yl)-ethyl]-1H-pyrazol-4-yl}-pyrimidine]
6.00 to 7.00 | Cn1cc(-c2cccc(-c3ncc(-c4cnn(CC5CCNC5)c4)cn3)c2)cn1 (centres unmarked) [Example 65, 2-[3-(1-Methyl-1H-pyrazol-4-yl)-phenyl]-5-(1-pyrrolidin-3-ylmethyl-1H-pyrazol-4-yl)-pyrimidine hydrochloride]
6.00 to 7.00 | Cn1cc(-c2cccc(-c3ncc(-c4cnn(CC5CNC5)c4)cn3)c2)cn1 [Example 66, 5-(1-Azetidin-3-ylmethyl-1H-pyrazol-4-yl)-2-[3-(1-methyl-1H-pyrazol-4-yl)-phenyl]-pyrimidine hydrochloride]
6.00 to 7.00 | Cn1cc(-c2cccc(-c3ncc(-c4cnn(CC(F)F)c4)cn3)c2)cn1 [Example 67, 5-[1-(2,2-Difluoro-ethyl)-1H-pyrazol-4-yl]-2-[3-(1-methyl-1H-pyrazol-4-yl)-phenyl]-pyrimidine]
5.30 to 6.00 | O=C(Cn1cc(-c2cnc(-c3cccc(-c4ccncc4)c3)nc2)cn1)N1CCOCC1 [Example 68, 1-Morpholin-4-yl-2-{4-[2-(3-pyridin-4-yl-phenyl)-pyrimidin-5-yl]-pyrazol-1-yl}-ethanone]

pIC50 | SMILES
6.00 to 7.00 | Cn1cc(-c2cccc(-c3ncc(-c4cnn(CCC5CCOCC5)c4)cn3)c2)cn1 [Example 69, 2-[3-(1-Methyl-1H-pyrazol-4-yl)-phenyl]-5-{1-[2-(tetrahydro-pyran-4-yl)-ethyl]-1H-pyrazol-4-yl}-pyrimidine]
5.30 to 6.00 | Cn1cc(-c2cccc(-c3ncc(-c4cnn(C[C@@H]5CCCN5)c4)cn3)c2)cn1 [Example 70, 2-[3-(1-Methyl-1H-pyrazol-4-yl)-phenyl]-5-(1-(S)-1-pyrrolidin-2-ylmethyl-1H-pyrazol-4-yl)-pyrimidine hydrochloride]
5.30 to 6.00 | Cn1cc(-c2cccc(-c3ncc(-c4cnn(C[C@H]5CCCN5)c4)cn3)c2)cn1 [Example 71, 2-[3-(1-Methyl-1H-pyrazol-4-yl)-phenyl]-5-(1-(R)-1-pyrrolidin-2-ylmethyl-1H-pyrazol-4-yl)-pyrimidine hydrochloride]
5.30 to 6.00 | Cn1cc(-c2cccc(-c3ncc(-c4cnn(C5CCNCC5)c4)cn3)c2)nn1 [Example 72, 2-[3-(1-Methyl-1H-[1,2,3]triazol-4-yl)-phenyl]-5-(1-piperidin-4-yl-1H-pyrazol-4-yl)-pyrimidine hydrochloride]
6.00 to 7.00 | Cn1cc(-c2cccc(-c3ncc(-c4cnn(CC(=O)N5CCOC(CCO)C5)c4)cn3)c2)cn1 (centres unmarked) [Example 75, 1-[2-(2-Hydroxy-ethyl)-morpholin-4-yl]-2-(4-{2-[3-(1-methyl-1H-pyrazol-4-yl)-phenyl]-pyrimidin-5-yl}-pyrazol-1-yl)-ethanone]
6.00 to 7.00 | Cn1cc(-c2cccc(-c3ncc(-c4cnn(C5CCN(S(C)(=O)=O)CC5)c4)cn3)c2)cn1 [Example 76, 5-[1-(1-Methanesulfonyl-piperidin-4-yl)-1H-pyrazol-4-yl]-2-[3-(1-methyl-1H-pyrazol-4-yl)-phenyl]-pyrimidine]
6.00 to 7.00 | Cn1cc(-c2cccc(-c3ncc(-c4cnn(CC(=O)N5CCC5)c4)cn3)c2)cn1 [Example 77, 1-Azetidin-1-yl-2-(4-{2-[3-(1-methyl-1H-pyrazol-4-yl)-phenyl]-pyrimidin-5-yl}-pyrazol-1-yl)-ethanone]
6.00 to 7.00 | O=C(Cn1cc(-c2cnc(-c3cccc(-c4cnco4)c3)nc2)cn1)N1CCOCC1 [Example 78, 1-Morpholin-4-yl-2-{4-[2-(3-oxazol-5-yl-phenyl)-pyrimidin-5-yl]-pyrazol-1-yl}-ethanone]
5.30 to 6.00 | O=C(Cn1cc(-c2cnc(-c3cccc(-c4c[nH]nn4)c3)nc2)cn1)N1CCOCC1 [Example 79, 1-Morpholin-4-yl-2-(4-{2-[3-(1H-[1,2,3]triazol-4-yl)-phenyl]-pyrimidin-5-yl}-pyrazol-1-yl)-ethanone]
6.00 to 7.00 | CC1CN(C(=O)Cn2cc(-c3cnc(-c4cccc(-c5cnn(C)c5)c4)nc3)cn2)CCO1 (centres unmarked) [Example 80, 1-(2-Methyl-morpholin-4-yl)-2-(4-{2-[3-(1-methyl-1H-pyrazol-4-yl)-phenyl]-pyrimidin-5-yl}-pyrazol-1-yl)-ethanone]
6.00 to 7.00 | Cn1cc(-c2cccc(-c3ncc(-c4cnn(CC(=O)N5CCC[C@H]5CO)c4)cn3)c2)cn1 [Example 81, 1-((S)-2-Hydroxymethyl-pyrrolidin-1-yl)-2-(4-{2-[3-(1-methyl-1H-pyrazol-4-yl)-phenyl]-pyrimidin-5-yl}-pyrazol-1-yl)-ethanone]
5.30 to 6.00 | Cn1cc(-c2cccc(-c3ncc(-c4cnn(CCC(=O)N5CCOCC5)c4)cn3)c2)cn1 [Example 83, 3-(4-{2-[3-(1-Methyl-1H-pyrazol-4-yl)-phenyl]-pyrimidin-5-yl}-pyrazol-1-yl)-1-morpholin-4-yl-propan-1-one]
5.30 to 6.00 | Cn1cc(-c2cccc(-c3ncc(-c4cnn(CCC(=O)N5CCCC5)c4)cn3)c2)cn1 [Example 84, 3-(4-{2-[3-(1-Methyl-1H-pyrazol-4-yl)-phenyl]-pyrimidin-5-yl}-pyrazol-1-yl)-1-pyrrolidin-1-yl-propan-1-one]
6.00 to 7.00 | CN(C)C(=O)CCn1cc(-c2cnc(-c3cccc(-c4cnn(C)c4)c3)nc2)cn1 [Example 85, N,N-Dimethyl-3-(4-{2-[3-(1-methyl-1H-pyrazol-4-yl)-phenyl]-pyrimidin-5-yl}-pyrazol-1-yl)-propionamide]
6.00 to 7.00 | Cn1cc(-c2cccc(-c3ncc(-c4cnn(CC(=O)N5CCC6(CC5)COC6)c4)cn3)c2)cn1 [Example 86, 2-(4-{2-[3-(1-Methyl-1H-pyrazol-4-yl)-phenyl]-pyrimidin-5-yl}-pyrazol-1-yl)-1-(2-oxa-7-aza-spiro[3.5]non-7-yl)-ethanone]
6.00 to 7.00 | COCCC1CN(C(=O)Cn2cc(-c3cnc(-c4cccc(-c5cnn(C)c5)c4)nc3)cn2)CCO1 (centres unmarked) [Example 87, 1-[2-(2-Methoxy-ethyl)-morpholin-4-yl]-2-(4-{2-[3-(1-methyl-1H-pyrazol-4-yl)-phenyl]-pyrimidin-5-yl}-pyrazol-1-yl)-ethanone]
